Data on two compounds can be found in patent US8501911B2, “Methods of reducing inflammation and mucus hypersecretion” (Biomarck Pharmaceuticals, Ltd, priority 1999, dated 2013).

What all share (format): cell-based, human
One assay has as its system PP2A. Kind of assay: Protein phosphatase activity assay in NHBE cells, PP2A. The settings on record: 8-Br-cGMP as low as 0.1 μM. On the procedure:
(§1) To confirm further activation of PP2A by PKG in NHBE cells, cytosolic PP1 and PP2A activities were determined after exposure of the cells to 8-Br-cGMP. […] Accordingly, this PP2A activity appeared critical for mucin secretion to occur; when PKG-induced MARCKS dephosphorylation was blocked by okadaic acid or fostriecin, the secretory response to PKC/PKG activation or UTP stimulation was ameliorated (see Results-I-6-1 and Results-I-6-2, above).
(§2) Protein Phosphatase Activity Assay—PP1 and PP2A activities were measured using a protein phosphatase assay system (Life Technologies, Inc.) as known in the art with slight modification. Huang et al., Adv. Exp. Med. Biol. 396, 209-215 (1996). Briefly, NHBE cells were treated with 8-Br-cGMP or medium alone for 5 min. Cells were then scraped into a lysis buffer (50 mM Tris-HCl (pH 7.4), 0.1% beta-mecaptoethanol, 0.1 mM EDTA, 1 mM benaamidine, 10 μg/ml pepstatin A, 10 μg/ml leupeptin) and disrupted by sonication for 20 s at 4° C. […] Released ^32Pi was counted by scintillation. The protein concentration of each sample was determined by the Bradford assay. PP2A activity was expressed as the sample total phosphatase activity minus the activity remaining in the presence of 1 nM okadaic acid. PP1 activity was expressed as the difference between the activities remaining in the presence of 1 nM and 1 μM okadaic acid, respectively. […]

The test system of another assay is PP1. Kind of assay: Protein phosphatase activity assay in NHBE cells, PP1. The settings on record: after exposure to 8-Br-cGMP. On the procedure: as §1, §2
The subject of another assay is MARCKS protein. Kind of assay: MARCKS protein level in NHBE cells (Western blot). The note with it: TNF-α 10 ng/ml 4 h. On the procedure: NHBE cells were treated with the antisense or the control oligonucleotide for 3 days and then stimulated with PMA (100 nM)+8-Br-cGMP (1 μM) for 15 min. Mucin secretion was analyzed by ELISA. Total RNA and protein were isolated from treated cells. MARCKS mRNA was assessed by Northern hybridization, and protein was assessed by Western blot. […] In this regard, MARCKS mRNA as a percent of control is shown in the following results which are designated as Results-I-3A-2:
Antisense Oligonucleotides—MARCKS antisense oligonucleotide and its corresponding control oligonucleotide were synthesized at Biognostik GmbH (Gottingen, Germany). […] Cells were then incubated with secretagogues, and mucin secretion was measured by ELISA. […] MARCKS mRNA was assessed by Northern hybridization according to conventional procedures using human MARCKS cDNA as a probe. MARCKS protein level was determined by Western blot using purified anti-MARCKS IgG1 (clone 2F12) as the primary detection antibody.
NHBE cells were incubated with 10 ng/ml human recombinant TNF-α or medium alone for 4 hrs, then stimulated with PMA (100 nM)+8-Br-cGMP (1 μM) for 15 min, or UTP (0.1 mM) for 2 hrs. Secreted mucin was collected and measured by ELISA. […] MARCKS mRNA was assessed by Northern hybridization, and protein by the Western Blot technique. […]
A general note: A western blot detects proteins with antibodies after separation by electrophoresis.

Turning to `Nc1nc2c(nc(Br)n2[C@@H]2O[C@@H]3COP(=O)(O)O[C@H]3[C@H]2O)c(=O)[nH]1` [8-Br-cGMP], the “Increase of PP2A activity” value with PP2A is “approximately 3 fold”. For the same compound, the PP2A activity in the assay on PP2A (5 min, baseline 0.1) is 0.3 nmol/mnin/mg proteins. In addition, in the assay with PP1, the PP1 activity result is recorded as “unchanged”.

TNF-α: in the assay on MARCKS protein, the “Increase in MARCKS protein vs medium only (Western blot)” value is listed as “three- to four-fold increase”. For the same compound, in the assay on MARCKS protein (then PMA 100 nM+8-Br-cGMP 1 μM 15 min), the “MARCKS protein level relative to control” value came out at 352%.
